The source made the active and inactive calls. The calls are words filed in the database; no cut-off is given here.
Key:
[1] = Binding affinity to biotinylated AAATTT DNA
Nucleic Acid [2] = assay: Binding affinity to topoisomerase 2-alpha promoter AAGCTA DNA by thermal denaturation assay; format: nucleic-acid assay
NIH3T3 = assay: Induction of topoisomerase 2-alpha expression in mouse NIH3T3 cells at 10 uM after 24 hrs by Western blotting assay; format: functional, cell-based
Nucleic Acid [3] = assay: Binding affinity to topoisomerase 2-alpha promoter AAATTT 12 bp DNA by thermal denaturation assay; format: nucleic-acid assay
[4] = Binding affinity to biotinylated AAGCTT DNA
[5] = Inhibition of NF-Y binding to 5'-[32P]ICB2-containing DNA fragment at 50 uM after 2 hrs by electrophoretic mobility shift assay
[6] = Binding affinity to biotinylated ACGCGT DNA
Nucleic Acid [7] = assay: Binding affinity to topoisomerase 2alpha promoter AAATTT 10 bp DNA by thermal denaturation assay; format: nucleic-acid assay
Nucleic Acid [8] = assay: Binding affinity to topoisomerase 2alpha promoter AAATTT 11 bp DNA by thermal denaturation assay; format: nucleic-acid assay
Nucleic Acid [9] = assay: Binding affinity to topoisomerase 2alpha promoter ATGCAT DNA by thermal denaturation assay; format: nucleic-acid assay

K [1] | ΔTm (Nucleic Acid [2]) | ΔTm (Nucleic Acid [3]) | K [4] | Activity [5] | K [6] | ΔTm (Nucleic Acid [7]) | ΔTm (Nucleic Acid [8]) | ΔTm (Nucleic Acid [9]) | SMILES | Activity (NIH3T3)
1.5 10^5/M | 8.4 °C | 3.8 °C | 5.6 10^6/M | Active | 2.8 10^5/M | – | – | – | CN(CCCNC(=O)CCCCCCCN1C(=O)c2cccc3cccc(c23)C1=O)CCCNC(=O)c1cc(NC(=O)c2cc(NC(=O)c3nc(NC=O)cn3C)cn2C)cn1C | Active
– | > 22 °C | – | – | – | – | 10 °C | – | – | CN(CCCN)CCCNC(=O)c1cc(NC(=O)c2cc(NC(=O)c3nc(NC=O)cn3C)cn2C)cn1C | –
4.7 10^5/M | 5.1 °C | – | 5.5 10^6/M | inactive | 9.5 10^4/M | – | 3.5 °C | 11 °C | CN(C)CCCNC(=O)c1cc(NC(=O)c2cc(NC(=O)c3nc(NC=O)cn3C)cn2C)cn1C | –
